# According to paper PMC10893631, “Receptor-based pharmacophore modeling, molecular docking, synthesis and biological evaluation of novel VEGFR-2, FGFR-1, and BRAF multi-kinase inhibitors” (BMC Chemistry, 2024):
# Columns and labels:
# Test in all cases: NCI SRB growth inhibition (single dose 10 µM / five-dose)
# Type in all cases: cell-based, human
# [1] = tested on: EKVX; details: Homo sapiens; EKVX (Non-small cell lung cancer), 10 µM; read-out: GI%
# In short: (§1)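 Three dose–response parameters were calculated per compound, among them TGI, defined at Ti = Tz. Percentage growth came from SRB absorbance normalised to time-zero and control wells, with negative values indicating cell kill below Tz.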
# [2] = tested on: HCC-2998; details: Homo sapiens; HCC-2998 (Colon cancer), 10 µM; read-out: GI%
# In short: as §1
# [3] = tested on: HOP-62; details: Homo sapiens; HOP-62 (Non-small cell lung cancer), 10 µM; read-out: GI%
# In short: as §1
# [4] = tested on: HOP-92; details: Homo sapiens; HOP-92 (Non-small cell lung cancer), 10 µM; read-out: GI%
# In short: as §1
# [5] = tested on: HT29; details: Homo sapiens, HT-29; HT29 (Colon cancer), 10 µM; read-out: GI%
# In short: as §1
# [6] = tested on: M14; details: Homo sapiens; M14 (Melanoma), 10 µM; read-out: GI%
# In short: as §1
# [7] = tested on: MCF7; details: Homo sapiens; MCF7 (Breast cancer), 10 µM; read-out: GI%
# In short: as §1
# [8] = tested on: MOLT-4; details: Homo sapiens; MOLT-4 (Leukemia), 10 µM; read-out: GI%
# In short: as §1
# [9] = tested on: NCI-H226; details: Homo sapiens; NCI-H226 (Non-small cell lung cancer), 10 µM; read-out: GI%
# In short: as §1
# [10] = tested on: NCI-H23; details: Homo sapiens; NCI-H23 (Non-small cell lung cancer), 10 µM; read-out: GI%
# In short: as §1
# [11] = tested on: NCI-H522; details: Homo sapiens; NCI-H522 (Non-small cell lung cancer), 10 µM; read-out: GI%
# In short: as §1
# [12] = tested on: OVCAR-3; details: Homo sapiens; OVCAR-3 (Ovarian cancer), 10 µM; read-out: GI%
# In short: as §1
# [13] = tested on: OVCAR-5; details: Homo sapiens; OVCAR-5 (Ovarian cancer), 10 µM; read-out: GI%
# In short: as §1
# [14] = tested on: PC-3; details: Homo sapiens; PC-3 (Prostate cancer), 10 µM; read-out: GI%
# In short: as §1
# [15] = tested on: RPMI-8226; details: Homo sapiens; RPMI-8226 (Leukemia), 10 µM; read-out: GI%
# In short: as §1
# [16] = tested on: SF-268; details: Homo sapiens; SF-268 (CNS cancer), 10 µM; read-out: GI%
# In short: as §1
# [17] = tested on: SF-539; details: Homo sapiens; SF-539 (CNS cancer), 10 µM; read-out: GI%
# In short: as §1
# [18] = tested on: SNB-19; details: Homo sapiens; SNB-19 (CNS cancer), 10 µM; read-out: GI%
# In short: as §1
# [19] = tested on: SR; details: Homo sapiens; SR (Leukemia), 10 µM; read-out: GI%
# In short: as §1
# [20] = tested on: SW-620; details: Homo sapiens; SW-620 (Colon cancer), 10 µM; read-out: GI%
# In short: as §1
# [21] = tested on: TK-10; details: Homo sapiens; TK-10 (Renal cancer), 10 µM; read-out: GI%
# In short: as §1
# [22] = tested on: U251; details: Homo sapiens, U-251; U251 (CNS cancer), 10 µM; read-out: GI%
# In short: as §1
# [23] = tested on: UACC-62; details: Homo sapiens; UACC-62 (Melanoma), 10 µM; read-out: GI%
# In short: as §1
Structure (SMILES),inhibition at 10 µM [1],inhibition at 10 µM [2],inhibition at 10 µM [3],inhibition at 10 µM [4],inhibition at 10 µM [5],inhibition at 10 µM [6],inhibition at 10 µM [7],inhibition at 10 µM [8],inhibition at 10 µM [9],inhibition at 10 µM [10],inhibition at 10 µM [11],inhibition at 10 µM [12],inhibition at 10 µM [13],inhibition at 10 µM [14],inhibition at 10 µM [15],inhibition at 10 µM [16],inhibition at 10 µM [17],inhibition at 10 µM [19],inhibition at 10 µM [20],inhibition at 10 µM [21],other results
"COc1cccc(C=NNC(=O)c2ccc3[nH]c(-c4ccccc4)nc3c2)c1 [8c, N'-(3-Methoxybenzylidene)-2-phenyl-1H-benzo[d]imidazole-5-carbohydrazide]",41.8%,< 5%,15.4%,< 5%,33.9%,8.28%,51%,35.4%,19.3%,9.68%,26%,7.38%,< 5%,24.6%,81.6%,15.1%,28.6%,36.3%,< 5%,< 5%,inhibition at 10 µM [18]: < 5%; inhibition at 10 µM [22]: 14.3%; inhibition at 10 µM [23]: 14.7%
"O=C(NN=Cc1cccc(O)c1)c1ccc2[nH]c(-c3ccc(Cl)cc3)nc2c1 [8p, 2-(4-Chlorophenyl)-N'-(3-hydroxybenzylidene)-1H-benzo[d]imidazole-5-carbohydrazide]",7.59%,15.9%,32.5%,6.79%,19.9%,25.4%,72.3%,68.6%,30.1%,56.6%,55.8%,< 5%,< 5%,48.8%,56.7%,24.2%,32.4%,26.4%,6.31%,< 5%,inhibition at 10 µM [22]: 75.5%; inhibition at 10 µM [23]: 19.6%
"COc1ccc(OC)c(C=NNC(=O)c2ccc3[nH]c(-c4ccc(Cl)cc4)nc3c2)c1 [8t, 2-(4-Chlorophenyl)-N'-(2,5-dimethoxybenzylidene)-1H-benzo[d]imidazole-5-carbohydrazide]",42.5%,14.6%,18.4%,36.6%,20.3%,30.9%,48.1%,58.9%,35.7%,33.9%,40.9%,10.8%,< 5%,58.5%,62.2%,43%,45.3%,31.4%,7.98%,10.9%,inhibition at 10 µM [18]: 45.7%; inhibition at 10 µM [22]: 25.7%; inhibition at 10 µM [23]: 24.3%
"COc1ccc(C=NNC(=O)c2ccc3[nH]c(-c4ccccc4)nc3c2)cc1O [8e, N'-(3-Hydroxy-4-methoxybenzylidene)-2-phenyl-1H-benzo[d]imidazole-5-carbohydrazide]",19.2%,< 5%,21.4%,6.3%,95.8%,19.7%,70.5%,36.1%,11.4%,< 5%,29.4%,7.25%,< 5%,11.5%,23.4%,16%,32.2%,44.1%,< 5%,< 5%,inhibition at 10 µM [18]: < 5%; inhibition at 10 µM [22]: 14.6%; inhibition at 10 µM [23]: 18.7%
